Measurements taken from the NIST ThermoML archive (doi:10.1016/j.fluid.2015.07.037).
± gives the expanded uncertainty stated by the source.

Tests used:
[1] = Crystal; DTA
[2] = Molar enthalpy of transition or fusion; details: Crystal; DSC

Row | Normal melting temperature [1] | Molar enthalpy of transition or fusion [2] | Structure (SMILES)
1 | 170.22 ± 0.41 °C | 19.1 ± 0.382 kcal/mol | CC(C)NCC(O)c1ccc(O)c(O)c1.Cl (stereo unspecified)
2 | 179.54 ± 0.41 °C | 18.5 ± 0.382 kcal/mol | C[C@H](N)[C@H](O)c1cccc(O)c1.O=C(O)[C@H](O)[C@@H](O)C(=O)O

Row | Structure (SMILES) | Normal melting temperature [1] | Molar enthalpy of transition or fusion [2]
3 | CNCC(O)c1ccc(O)cc1 (stereo unspecified) [synephrine] | 190.38 ± 0.41 °C | 23.8 ± 0.478 kcal/mol
